# US20170372030A9, “METHOD AND APPARATUS FOR COMPUTER MODELING OF THE INTERACTION BETWEEN AND AMONG CORTICAL AND SUBCORTICAL AREAS IN THE HUMAN BRAIN FOR THE PURPOSE OF PREDICTING THE EFFECT OF DRUGS IN PSYCHIATRIC AND COGNITIVE DISEASES” (priority 2005, published 2017)
# Read-outs that look alike come from different tables or passages of the source.
# Key:
# [1] = biological target: receptors of the 5HT1 class; conditions: read-out: high-affinity binding for serotonin; cited from earlier work
# [2] = tested on: fast Na+ channel, persistent Na+ channel, L-type Ca++ channel; conditions: saturating dose of 5HT (1 μM); cited from earlier work
# [3] = biological target: 5HT-Transporter (Homo sapiens, UniProt P31645); conditions: read-out: Km of 5HT-Transporter; cited from earlier work
# [4] = tested on: 5HT1b/d autoreceptor; conditions: cited from earlier work; for decrease of free 5HT: maximal stimulation of 5HT1b/d autoreceptor
# [5] = biological target: T1, D2-R (Homo sapiens, UniProt P14416); experiment: Drug and tracer binding affinity and on/off rates at the D2-R (Table 1); conditions: calculated as kon × Kd
# [6] = biological target: T1, D2-R; conditions: cited from earlier work
# [7] = biological target: T2, 5HT2C receptor (Rattus norvegicus, UniProt P08909); conditions: microdialysis, maximal effect; cited from earlier work
# T2 construct: from tissue; host or cells: brain in vivo (microdialysis), value quoted from the literature
# T2 sequence (P08909 33-460): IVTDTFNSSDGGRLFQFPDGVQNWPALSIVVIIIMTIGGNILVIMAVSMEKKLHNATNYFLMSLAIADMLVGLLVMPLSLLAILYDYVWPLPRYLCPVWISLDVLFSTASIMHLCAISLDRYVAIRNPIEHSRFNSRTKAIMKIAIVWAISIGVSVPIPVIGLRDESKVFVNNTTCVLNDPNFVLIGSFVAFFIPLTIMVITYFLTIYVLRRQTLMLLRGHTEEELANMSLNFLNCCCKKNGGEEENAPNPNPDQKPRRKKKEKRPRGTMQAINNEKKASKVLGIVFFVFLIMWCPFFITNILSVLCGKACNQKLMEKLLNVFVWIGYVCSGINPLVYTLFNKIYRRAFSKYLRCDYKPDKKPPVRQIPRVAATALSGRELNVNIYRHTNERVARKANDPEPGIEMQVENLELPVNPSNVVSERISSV
# [8] = biological target: alpha 1-adrenoreceptor; conditions: nonspiking regions, human cortical membranes; read-out: affinity; cited from earlier work
# [9] = biological target: alpha 1-adrenoreceptor; conditions: normal rat brain in vivo, cited from earlier work
# [10] = tested on: α2 adrenergic receptors; conditions: full stimulation of α2 receptors; cited from earlier work
# [11] = biological target: α2-R; conditions: read-out: Ki for NE at the α2-R; cited from earlier work
# [12] = tested on: Norepinephrine Transporter (NET); conditions: rat jejunum, cited from earlier work
# [13] = biological target: T3, NET (Rattus norvegicus, UniProt Q63380); conditions: blocking the NET; cited from earlier work
# T3 construct: from tissue
# T3 sequence (Q63380 1-617): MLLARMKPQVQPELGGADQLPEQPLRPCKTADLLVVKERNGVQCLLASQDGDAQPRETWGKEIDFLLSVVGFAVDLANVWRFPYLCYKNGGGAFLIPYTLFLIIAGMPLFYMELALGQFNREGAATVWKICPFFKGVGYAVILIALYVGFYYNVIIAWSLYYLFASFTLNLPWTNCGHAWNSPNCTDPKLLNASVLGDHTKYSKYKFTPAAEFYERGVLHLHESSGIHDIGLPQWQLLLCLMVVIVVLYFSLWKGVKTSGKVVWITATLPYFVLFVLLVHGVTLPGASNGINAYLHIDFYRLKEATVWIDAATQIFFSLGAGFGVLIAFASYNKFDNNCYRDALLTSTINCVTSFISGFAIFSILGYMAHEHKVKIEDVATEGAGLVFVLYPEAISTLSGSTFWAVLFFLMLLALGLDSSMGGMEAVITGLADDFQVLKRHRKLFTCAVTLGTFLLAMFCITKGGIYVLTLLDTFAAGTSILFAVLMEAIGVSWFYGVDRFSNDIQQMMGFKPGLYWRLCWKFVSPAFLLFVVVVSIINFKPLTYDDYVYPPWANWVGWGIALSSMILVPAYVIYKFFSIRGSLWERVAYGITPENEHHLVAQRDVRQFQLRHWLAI
# T1 sequence (P14416 whole entry): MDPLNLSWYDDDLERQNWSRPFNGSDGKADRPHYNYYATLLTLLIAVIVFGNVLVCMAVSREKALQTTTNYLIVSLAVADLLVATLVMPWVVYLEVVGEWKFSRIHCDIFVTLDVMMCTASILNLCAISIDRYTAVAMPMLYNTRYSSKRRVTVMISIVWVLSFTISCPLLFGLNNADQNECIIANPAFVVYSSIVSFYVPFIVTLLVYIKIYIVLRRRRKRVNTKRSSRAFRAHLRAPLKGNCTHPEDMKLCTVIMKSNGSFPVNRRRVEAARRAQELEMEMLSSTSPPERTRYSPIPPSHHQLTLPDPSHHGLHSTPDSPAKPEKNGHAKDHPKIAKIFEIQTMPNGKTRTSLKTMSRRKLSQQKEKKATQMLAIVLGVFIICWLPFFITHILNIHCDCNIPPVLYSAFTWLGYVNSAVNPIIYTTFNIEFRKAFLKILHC
# Sequence of 5HT-Transporter (P31645 whole entry): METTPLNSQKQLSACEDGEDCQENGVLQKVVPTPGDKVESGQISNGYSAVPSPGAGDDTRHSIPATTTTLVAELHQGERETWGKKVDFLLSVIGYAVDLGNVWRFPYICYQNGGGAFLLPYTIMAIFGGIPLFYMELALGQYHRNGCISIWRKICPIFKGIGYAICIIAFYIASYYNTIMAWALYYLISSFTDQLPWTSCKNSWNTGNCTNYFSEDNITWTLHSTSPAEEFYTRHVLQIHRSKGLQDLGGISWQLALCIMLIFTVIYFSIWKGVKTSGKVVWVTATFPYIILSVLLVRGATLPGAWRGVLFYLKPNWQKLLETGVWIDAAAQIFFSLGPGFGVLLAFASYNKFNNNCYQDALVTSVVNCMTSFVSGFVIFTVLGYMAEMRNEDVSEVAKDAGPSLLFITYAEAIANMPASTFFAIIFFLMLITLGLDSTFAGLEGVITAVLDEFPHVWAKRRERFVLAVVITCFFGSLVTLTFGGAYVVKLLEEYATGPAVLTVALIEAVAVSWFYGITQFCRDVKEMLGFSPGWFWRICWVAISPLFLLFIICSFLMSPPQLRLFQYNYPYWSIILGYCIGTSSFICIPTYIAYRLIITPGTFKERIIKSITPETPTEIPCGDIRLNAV
smiles,measurement,setting,value
"NCCc1c[nH]c2ccc(O)cc12 [5HT, serotonin]",Kd,[1],~0.015 µM
same,"decrease of maximum conductance of fast Na+, persistent Na+ and L-type Ca++ channel",[2],20%
same,Km,[3],0.34 µM
"O=c1ccc2[nH]cc(C3=CCNCC3)c2[nH]1 [CP93,129]",decrease of free 5HT,[4],45%
"CN1CCC[C@@H]1Cc1c[nH]c2ccc(Nc3ncccc3[N+](=O)[O-])cc12 [CP135,807]",decrease of free 5HT,[4],45%
CCN1CCC[C@H]1CNC(=O)c1c(OC)ccc(I)c1O [IBZM],Koff,[5],0.0176 s⁻¹
same,Kd,"[6]; tracer, read-out: affinity of tracer for the D2-R",0.16 µM
Cc1nc2n(c(=O)c1CCN1CCC(c3noc4cc(F)ccc34)CC1)CCCC2O (stereo not drawn) [Paliperidone],Kd,"[6]; at the D2-R, read-out: Kd",0.0041 µM
C[C@H](N)Cn1ccc2cc(F)c(Cl)cc21 [Ro-60-0175],maximal reduction of free DA,[7],30%
"COc1cc2nc(N3CCN(C(=O)c4ccco4)CC3)nc(N)c2cc1OC [[^3H]prazosin, prazosin]",Kd,[8],0.00017 µM
"O=C1c2ccccc2CCC1CNCCc1ccc(O)c(I)c1 (stereo not drawn) [[^125I]HEAT, [^125I]iodo-2-[beta-(4-hydroxyphenyl)ethylaminomethyl]]",Kd,"[9]; read-out: Kd (half-saturation constant), high-affinity site",0.0036 µM
same,Kd,"[9]; read-out: Kd, low-affinity site",0.668 µM
Clc1cccc(Cl)c1N=C1NCCN1 [clonidine],reduction of 5HT firing (and subsequent PFC 5HT release),[10],45%
CC(C)NCC(O)COc1ccccc1-n1cccc1 (stereo not drawn) [isamoltane],increase of free 5HT,[4]; maximal block of 5HT1b/d autoreceptor,50%
NC[C@H](O)c1ccc(O)c(O)c1 [norepinephrine],Ki,[11],0.996 µM
same,Km,"[12]; read-out: Km, low-affinity component (uptake 2)",111 µM
same,Km,"[12]; read-out: Michaelis constant (Km), high-affinity component (uptake 1)",1.72 µM
COc1ccc(C(CN(C)C)C2(O)CCCCC2)cc1 (stereo not drawn) [venlafaxine],NE increase in cortex,[13],498%
